According to US8153676B2, “Use of compounds of formula A-R-Xo pharmaceutically acceptable salts thereof for producing a pharmaceutically preparations” (priority 2006, dated 2012):

Experiments:
[1] = system: MRC-5 (lung fibroblast cells); assay: LDH cytotoxicity test; format: cell-based; settings: MRC-5, LDH cytotoxicity test
Experimental: (§1) The half maximum cytotoxicity of 12-imidazolyl-1-dodecanol was determined with the LDH cytotoxicity test.

Panc-1 (pancreas cells) [2] = assay: LDH cytotoxicity test; format: cell-based; settings: Panc-1, LDH cytotoxicity test
Experimental: as §1

male CD rats = assay: Acute toxicity in male CD rats; format: in vivo
Experimental: (§2) The acute toxicity of 12-imidazolyl-1-dodecanol (substance 1) and 12-(1)-imidazolyl-dodecane (substance 2) was tested in male CD rats. For 12-imidazolyl-1-dodecanol the result was an LD50 (14 days) of 1,000 mg/kg, b.w., p.o.; and for 12-(1)-imidazolyl-dodecane an LD50 (14 days) of 1,000 mg/kg b.w., p.o.

HepG2 liver cancer cells = assay: Migration test of HepG2 cells in collagen matrix; format: cell-based; settings: for drop of migratory activity of the cells: control migratory activity 15%, 900 minutes; for Mean migratory activity: control 15%
Experimental: Migration test conditions: HepG2 liver cancer cells were embedded in a collagen matrix. Thirty individual cells were inspected continuously by photographic means for 900 minutes. The average percentage of migrating cells was determined. Result 2: […]

PC-3 (prostate cells) = assay: Antineoplastic effect: cancer cell proliferation, cell count after four day incubation; format: cell-based; settings: PC-3, four day incubation, read-out: half maximum inhibitory concentration IC50 (cancer cell proliferation)
Experimental: (§3) To this end, four cancer cell lines were seeded into “24 well plates” and allowed to grow for 24 hours. Then a wide array of the concentrations of the test substance 12-imidazolyl-1-dodecanol, dissolved in DMSO, was added to the cell suspensions. The DMSO concentration in the cell medium was 0.01%. […] In all cases a strong inhibition of cancer cell proliferation was determined.
(§4) The following half maximum inhibitory concentrations—IC50 values—of 12-imidazolyl-1-dodecanol were determined: […]

HepG2 (liver cells) = assay: as above; format: cell-based; settings: read-out: half maximum inhibitory concentration IC50 (cancer cell proliferation)
Experimental: as §3, §4

[3] = system: SW620 (large intestine cells); assay: as above; format: cell-based; settings: read-out: half maximum inhibitory concentration IC50 (cancer cell proliferation)
Experimental: as §3, §4

Panc-1 (pancreas cells) [4] = assay: as above; format: cell-based; settings: Panc-1, four day incubation, read-out: half maximum inhibitory concentration IC50 (cancer cell proliferation)
Experimental: as §3, §4

cytochrome P450 [5] = assay: In vivo activity (cytochrome P450 inhibition)
cytochrome P450 [6] = assay: In vitro inhibition of cytochrome P450 activity; format: biochemical; settings: for in vitro inhibition of cytochrome P450 activity: compared with 10-undecinyl acid
[7] = Acute toxicity in male CD rats; format: in vivo; settings: male, CD, rat, in vivo, po
Experimental: as §2

[8] = male, CD, rat, in vivo, po, 14 days

12-imidazolyl-1-dodecanol
half maximum cytotoxicity [1]: 500 µM | half maximum cytotoxicity (Panc-1 (pancreas cells) [2]): 500 µM | half maximum cytotoxicity (as restated in text) (Panc-1 (pancreas cells) [2]): 500 μm | First intolerance reaction (male CD rats; male CD rats, p.o.): substance 1: 1,000 mg/kg b.w., p.o. | No effect at the dose rate (male CD rats; male CD rats, p.o.): substance 1: 500 mg/kg b.w., p.o. | LD50 (14 days) (male CD rats; male CD rats, p.o., 14 days): 1,000 mg/kg, b.w. | drop of migratory activity of the cells (HepG2 liver cancer cells; 1 μM in matrix medium): 50% | drop of migratory activity of the cells (HepG2 liver cancer cells; 10 μM in matrix medium): 75% | Mean migratory activity (HepG2 liver cancer cells; insulin and 12-imidazolyl-1-dodecanol (10 μl)): 15% | effect on insulin-induced increase in migratory activity (HepG2 liver cancer cells; with insulin, after 450 min. observation time): blocks this increase completely | mean migratory activity below that of the control group (HepG2 liver cancer cells; with insulin, after 900 minutes): 13% | IC50 (PC-3 (prostate cells)): 50 nM | IC50 (HepG2 (liver cells)): 50 nM | IC50 [3]: 100 nM | IC50 (Panc-1 (pancreas cells) [4]): 50 nM

C#CCCCCCCCCC(C)(C)C(=O)O [2,2-dimethyl-11-dodecinyl acid]
in vivo activity compared with 10-undecinyl acid (cytochrome P450 [5]): far superior | in vitro inhibition of cytochrome P450 activity (cytochrome P450 [6]): comparably high inhibition

C#CCCCCCCCCCOS(=O)(=O)O [10-undecinyl-sulfate]
in vivo activity compared with 10-undecinyl acid (cytochrome P450 [5]): far superior | in vitro inhibition of cytochrome P450 activity (cytochrome P450 [6]): comparably high inhibition

CCCCCCCCCCCCn1ccnc1 [12-(1)-imidazolyl-dodecane]
LD50 at 14 days [7]: 1000 mg/kg | First intolerance reaction (male CD rats; [8]): substance 2: 500 mg/kg b.w., p.o. | No effect at the dose rate (male CD rats; [8]): substance 2: 250 mg/kg b.w., p.o.

C#CCCCCCCCCCCCCCCCC(=O)O [17-octadecinyl-1-acid]
effectiveness in vitro (cytochrome P450 [6]): especially effective in vitro

insulin: insulin added to HepG2 cells to stimulate migratory activity [reference compound]
Mean migratory activity (HepG2 liver cancer cells; insulin (100 ng/ml) alone): 38% | increase in the migratory activity (times) (HepG2 liver cancer cells; insulin versus control): 2.5 times
